Measurements taken from PubChem BioAssay (NCI).
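Briefly, cells in 96-well plates were exposed to five compound concentrations for 48 h, and endpoints were estimated by linear interpolation. GI50 = concentration required for 50% inhibition of growth. At the TGI there is no net growth.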

Legend:
Experiment in all cases: DTP human tumour cell line panel, 48 h
CAKI-1 renal = test system: CAKI-1 renal
NCI-H23 lung = test system: NCI-H23 lung
SF-268 CNS = test system: SF-268 CNS
MOLT-4 leukemia = test system: MOLT-4 leukemia
SR leukemia = test system: SR leukemia
HS 578T breast = test system: HS 578T breast
COLO 205 colon = test system: COLO 205 colon
T-47D breast = test system: T-47D breast
OVCAR-5 ovarian = test system: OVCAR-5 ovarian
NCI-H522 lung = test system: NCI-H522 lung
UO-31 renal = test system: UO-31 renal
HL-60(TB) leukemia = test system: HL-60(TB) leukemia
K-562 leukemia = test system: K-562 leukemia
A549 NSCLC = test system: A549 NSCLC
SNB-19 CNS = test system: SNB-19 CNS
SN12C renal = test system: SN12C renal
CCRF-CEM leukemia = test system: CCRF-CEM leukemia
RXF 393 renal = test system: RXF 393 renal
SF-295 CNS = test system: SF-295 CNS
BT-549 breast = test system: BT-549 breast
MALME-3M melanoma = test system: MALME-3M melanoma
SW-620 colon = test system: SW-620 colon
UACC-257 melanoma = test system: UACC-257 melanoma
SK-OV-3 ovarian = test system: SK-OV-3 ovarian
RPMI-8226 leukemia = test system: RPMI-8226 leukemia
SK-MEL-2 melanoma = test system: SK-MEL-2 melanoma
UACC-62 melanoma = test system: UACC-62 melanoma
ACHN renal = test system: ACHN renal
HCC-2998 colon = test system: HCC-2998 colon
NCI-H226 lung = test system: NCI-H226 lung
MDA-MB-231 breast = test system: MDA-MB-231 breast
IGROV1 ovarian = test system: IGROV1 ovarian
NCI/ADR-RES ovarian = test system: NCI/ADR-RES ovarian
HOP-92 NSCLC = test system: HOP-92 NSCLC
TK-10 renal = test system: TK-10 renal
OVCAR-3 ovarian = test system: OVCAR-3 ovarian
PC-3 prostate = test system: PC-3 prostate
OVCAR-8 ovarian = test system: OVCAR-8 ovarian
A498 renal = test system: A498 renal
SK-MEL-5 melanoma = test system: SK-MEL-5 melanoma
U251 CNS = test system: U251 CNS
OVCAR-4 ovarian = test system: OVCAR-4 ovarian
SK-MEL-28 melanoma = test system: SK-MEL-28 melanoma
HCT-15 colon = test system: HCT-15 colon
SF-539 CNS = test system: SF-539 CNS
786-0 renal = test system: 786-0 renal
M14 melanoma = test system: M14 melanoma
MDA-MB-435 = test system: MDA-MB-435
HOP-62 NSCLC = test system: HOP-62 NSCLC
SNB-75 CNS = test system: SNB-75 CNS
HT29 colon = test system: HT29 colon
KM12 colon = test system: KM12 colon
EKVX NSCLC = test system: EKVX NSCLC
NCI-H460 lung = test system: NCI-H460 lung
LOX IMVI melanoma = test system: LOX IMVI melanoma
DU-145 prostate = test system: DU-145 prostate

SMILES: CN1CCN(c2ccc3nc(-c4ccc(OCCCN5C(=O)c6cccc7cccc(c67)C5=O)cc4)[nH]c3c2)CC1
- GI50 (CAKI-1 renal): 18.8 µM
- TGI (CAKI-1 renal): > 100 µM
- GI50 (NCI-H23 lung): 8.1 µM
- TGI (NCI-H23 lung): 55.9 µM
- GI50 (SF-268 CNS): 26.3 µM
- TGI (SF-268 CNS): 99.8 µM
- GI50 (MOLT-4 leukemia): 2.06 µM
- TGI (MOLT-4 leukemia): 5.05 µM
- GI50 (SR leukemia): 2.69 µM
- TGI (SR leukemia): 5.94 µM
- GI50 (HS 578T breast): 2.11 µM
- TGI (HS 578T breast): 4.6 µM
- GI50 (COLO 205 colon): 4.53 µM
- TGI (COLO 205 colon): > 100 µM
- GI50 (T-47D breast): 4.8 µM
- TGI (T-47D breast): 34.3 µM
- GI50 (OVCAR-5 ovarian): 1.89 µM
- TGI (OVCAR-5 ovarian): 3.38 µM
- GI50 (NCI-H522 lung): 24.9 µM
- TGI (NCI-H522 lung): > 88.8 µM
- GI50 (UO-31 renal): 14.5 µM
- TGI (UO-31 renal): 43.1 µM
- GI50 (HL-60(TB) leukemia): 3.13 µM
- TGI (HL-60(TB) leukemia): 7.41 µM
- GI50 (K-562 leukemia): 0.889 µM
- TGI (K-562 leukemia): 4.54 µM
- GI50 (A549 NSCLC): 16.3 µM
- TGI (A549 NSCLC): 62.4 µM
- GI50 (SNB-19 CNS): 31 µM
- TGI (SNB-19 CNS): 69.6 µM
- GI50 (SN12C renal): 15.6 µM
- TGI (SN12C renal): 34.8 µM
- GI50 (CCRF-CEM leukemia): 2.62 µM
- TGI (CCRF-CEM leukemia): 7.48 µM
- GI50 (RXF 393 renal): 10 µM
- TGI (RXF 393 renal): 41.7 µM
- GI50 (SF-295 CNS): 14.5 µM
- TGI (SF-295 CNS): 89.2 µM
- GI50 (BT-549 breast): 2.66 µM
- TGI (BT-549 breast): 6.13 µM
- GI50 (MALME-3M melanoma): 4.43 µM
- TGI (MALME-3M melanoma): > 30.8 µM
- GI50 (SW-620 colon): 1.83 µM
- TGI (SW-620 colon): 3.44 µM
- GI50 (UACC-257 melanoma): 24.8 µM
- TGI (UACC-257 melanoma): 51.8 µM
- GI50 (SK-OV-3 ovarian): 10.8 µM
- TGI (SK-OV-3 ovarian): 37.5 µM
- GI50 (RPMI-8226 leukemia): 2.58 µM
- TGI (RPMI-8226 leukemia): 7.75 µM
- GI50 (SK-MEL-2 melanoma): 25.2 µM
- TGI (SK-MEL-2 melanoma): 62.4 µM
- GI50 (UACC-62 melanoma): 5.18 µM
- TGI (UACC-62 melanoma): 10.1 µM
- GI50 (ACHN renal): 5.34 µM
- TGI (ACHN renal): 11.2 µM
- GI50 (HCC-2998 colon): 20.6 µM
- TGI (HCC-2998 colon): 52.6 µM
- GI50 (NCI-H226 lung): 19.8 µM
- TGI (NCI-H226 lung): 51.2 µM
- GI50 (MDA-MB-231 breast): 1.41 µM
- TGI (MDA-MB-231 breast): 2.76 µM
- GI50 (IGROV1 ovarian): 21.8 µM
- TGI (IGROV1 ovarian): 66.1 µM
- GI50 (NCI/ADR-RES ovarian): 2.09 µM
- TGI (NCI/ADR-RES ovarian): 4.7 µM
- GI50 (HOP-92 NSCLC): 1.66 µM
- TGI (HOP-92 NSCLC): 3.29 µM
- GI50 (TK-10 renal): 8.54 µM
- TGI (TK-10 renal): > 71.2 µM
- GI50 (OVCAR-3 ovarian): 27.1 µM
- TGI (OVCAR-3 ovarian): 95.6 µM
- GI50 (PC-3 prostate): 2.04 µM
- TGI (PC-3 prostate): 4.95 µM
- GI50 (OVCAR-8 ovarian): 2.38 µM
- TGI (OVCAR-8 ovarian): 5.48 µM
- GI50 (A498 renal): 24.1 µM
- TGI (A498 renal): 50.4 µM

SMILES: C=C1C(=O)O[C@H]2[C@H]1CC/C(COC(=O)CCC(=O)OC/C1=C/CC[C@@]3(C)O[C@H]3[C@H]3OC(=O)C(=C)[C@@H]3CC1)=C\CC[C@@]1(C)O[C@@H]21
- GI50 (SK-MEL-5 melanoma): 2.05 µM
- TGI (SK-MEL-5 melanoma): 5.27 µM
- GI50 (U251 CNS): 2.78 µM
- TGI (U251 CNS): 9.18 µM
- GI50 (NCI-H23 lung): 2.9 µM
- TGI (NCI-H23 lung): 11.2 µM
- GI50 (OVCAR-4 ovarian): 2.07 µM
- TGI (OVCAR-4 ovarian): 5.9 µM
- GI50 (SK-MEL-28 melanoma): 1.53 µM
- TGI (SK-MEL-28 melanoma): 3.97 µM
- GI50 (SF-268 CNS): 3.18 µM
- TGI (SF-268 CNS): 14 µM
- GI50 (MOLT-4 leukemia): 0.561 µM
- TGI (MOLT-4 leukemia): 2.8 µM
- GI50 (SR leukemia): 0.345 µM
- TGI (SR leukemia): 2.52 µM
- GI50 (HS 578T breast): 2.74 µM
- TGI (HS 578T breast): 16 µM
- GI50 (HCT-15 colon): 1.54 µM
- TGI (HCT-15 colon): 3.58 µM
- GI50 (COLO 205 colon): 0.455 µM
- TGI (COLO 205 colon): 1.74 µM
- GI50 (T-47D breast): 1.06 µM
- TGI (T-47D breast): 3.67 µM
- GI50 (OVCAR-5 ovarian): 2.13 µM
- TGI (OVCAR-5 ovarian): 6.03 µM
- GI50 (SF-539 CNS): 1.95 µM
- TGI (SF-539 CNS): 5.58 µM
- GI50 (NCI-H522 lung): 1.43 µM
- TGI (NCI-H522 lung): 3.07 µM
- GI50 (UO-31 renal): 1.02 µM
- TGI (UO-31 renal): 2.39 µM
- GI50 (HL-60(TB) leukemia): 0.233 µM
- TGI (HL-60(TB) leukemia): 0.812 µM
- GI50 (786-0 renal): 1.46 µM
- TGI (786-0 renal): 3.12 µM
- GI50 (K-562 leukemia): 0.531 µM
- TGI (K-562 leukemia): 4.34 µM
- GI50 (M14 melanoma): 1.6 µM
- TGI (M14 melanoma): 5.32 µM
- GI50 (A549 NSCLC): 13.7 µM
- TGI (A549 NSCLC): 30 µM
- GI50 (SNB-19 CNS): 8.46 µM
- TGI (SNB-19 CNS): 25 µM
- GI50 (SN12C renal): 2.04 µM
- TGI (SN12C renal): 6.63 µM
- GI50 (CCRF-CEM leukemia): 0.251 µM
- TGI (CCRF-CEM leukemia): 0.778 µM
- GI50 (MDA-MB-435): 1.84 µM
- TGI (MDA-MB-435): 4.65 µM
- GI50 (RXF 393 renal): 0.661 µM
- TGI (RXF 393 renal): 2.17 µM
- GI50 (HOP-62 NSCLC): 3.21 µM
- TGI (HOP-62 NSCLC): 10.6 µM
- GI50 (SF-295 CNS): 10.5 µM
- TGI (SF-295 CNS): 25.3 µM
- GI50 (BT-549 breast): 1.4 µM
- TGI (BT-549 breast): 2.83 µM
- GI50 (MALME-3M melanoma): 1.14 µM
- TGI (MALME-3M melanoma): 2.88 µM
- GI50 (SW-620 colon): 0.602 µM
- TGI (SW-620 colon): 2.1 µM
- GI50 (SNB-75 CNS): 15.1 µM
- TGI (SNB-75 CNS): 45.7 µM
- GI50 (UACC-257 melanoma): 1.52 µM
- TGI (UACC-257 melanoma): 3.39 µM
- GI50 (HT29 colon): 1.46 µM
- TGI (HT29 colon): 3.03 µM
- GI50 (SK-OV-3 ovarian): 23.1 µM
- TGI (SK-OV-3 ovarian): 84.8 µM
- GI50 (KM12 colon): 3.88 µM
- TGI (KM12 colon): 16.6 µM
- GI50 (RPMI-8226 leukemia): 1.22 µM
- TGI (RPMI-8226 leukemia): 4.16 µM
- GI50 (EKVX NSCLC): 2.55 µM
- TGI (EKVX NSCLC): 11.6 µM
- GI50 (SK-MEL-2 melanoma): 2.89 µM
- TGI (SK-MEL-2 melanoma): 9.38 µM
- GI50 (UACC-62 melanoma): 1.86 µM
- TGI (UACC-62 melanoma): 6.55 µM
- GI50 (ACHN renal): 0.753 µM
- TGI (ACHN renal): 2.03 µM
- GI50 (HCC-2998 colon): 2.13 µM
- TGI (HCC-2998 colon): 4.4 µM
- GI50 (NCI-H226 lung): 2.46 µM
- TGI (NCI-H226 lung): 11.7 µM
- GI50 (MDA-MB-231 breast): 1.65 µM
- TGI (MDA-MB-231 breast): 3.72 µM
- GI50 (IGROV1 ovarian): 2.26 µM
- TGI (IGROV1 ovarian): 8.83 µM
- GI50 (NCI-H460 lung): 4.48 µM
- TGI (NCI-H460 lung): 17.2 µM
- GI50 (LOX IMVI melanoma): 1.37 µM
- TGI (LOX IMVI melanoma): 2.75 µM
- GI50 (NCI/ADR-RES ovarian): 14 µM
- TGI (NCI/ADR-RES ovarian): 40.5 µM
- GI50 (HOP-92 NSCLC): 0.71 µM
- TGI (HOP-92 NSCLC): 2.38 µM
- GI50 (TK-10 renal): 1.75 µM
- TGI (TK-10 renal): 3.38 µM
- GI50 (OVCAR-3 ovarian): 0.599 µM
- TGI (OVCAR-3 ovarian): 1.91 µM
- GI50 (DU-145 prostate): 1.71 µM
- TGI (DU-145 prostate): 3.53 µM
- GI50 (PC-3 prostate): 2.58 µM
- TGI (PC-3 prostate): 7.86 µM
- GI50 (OVCAR-8 ovarian): 2.75 µM
- TGI (OVCAR-8 ovarian): 10.4 µM
- GI50 (A498 renal): 10.5 µM
- TGI (A498 renal): 23.6 µM
